Data reported in patent publication US20250034182A1, “PHOSPHOLIPID COMPOUNDS AND METHODS OF MAKING AND USING THE SAME” (priority 2021, published 2025).

How the values were obtained:
Assay type in all cases: cell-based
[1] = tested on: Recombinant Respiratory Syncytial virus strain A2 containing the firefly luciferase reporter (RSV-Fluc) in NHBE cells; assay: RSV NHBE FLuc EC50 (Example I); settings: human respiratory syncytial virus, 72 h, read-out: RSV NHBE FLuc EC50 (nM) (per Ex. I)
Excerpt: Normal human bronchial epithelial (NHBE) cells are purchased from Lonza (Walkersville, MD Cat #CC-2540) and maintained in Bronchial Epithelial Cell Growth Medium (BEGM) (Lonza, Walkersville, MD, Cat #CC-3170) with all provided supplements in the BulletKit. Cells are passaged 2-3 times per week to maintain sub-confluent densities and are used for experiments at passages 2-4.
Recombinant Respiratory Syncytial virus strain A2 containing the firefly luciferase reporter between the P and M genes (RSV-Fluc, 6.3×10^6 TCID50/mL) is purchased from Viratree (Durham, NC, Cat #R^145).
NHBE cells (5×10^3/well) are seeded in 100 μL white wall/clear bottom 96-well plates (Corning) with culture medium and are incubated for 24 hours at 37° C. with 5% CO2. On the following day, three-fold serial dilutions of compounds prepared in DMSO are added to the wells using the HP D300e digital dispenser with normalization to the highest concentration of DMSO in all wells. The cells are then infected with RSV-Fluc diluted with BEGM media at an MOI of 0.1 for a final volume of 200 μL media/well. Uninfected and untreated wells are included as controls to determine compound efficacy against RSV-Fluc. Following incubation with compound and virus for three days at 37° C. with 5% CO2, 100 μL of culture supernatant is removed from each well and replaced with 100 μL of ONE-Glo luciferase reagent (Promega, Madison, WI, Cat #E6110). The plates are gently mixed by rocking for 10 minutes at 21° C. and luminescence signal is measured using an Envision plate reader (PerkinElmer). Values are normalized to the uninfected and infected DMSO controls (0% and 100% infection, respectively). Non-linear regression analysis is applied to determine the compound concentration at which 50% luminescence signal is reduced (EC50) using the XLfit4 add-in for MICROSOFT®EXCEL®. All experiments are performed in duplicate with two technical repeats each.

[2] = in vitro; settings: human
Experimental: (§1) Huh7 hepatoblastoma cells were seeded onto 96-well plates and incubated at 37° C. with 5% CO2 overnight. The plates were seeded at a cell concentration that will yield >70% confluent monolayers in each well after overnight incubation. Eight 3-fold serial dilutions of compounds were diluted in test media (MEM supplemented with 2% FBS and 50 μg/mL gentamicin). The highest test compound concentration was 50 μg/mL. 100 μL of each concentration was added to 5 test wells on the 96-well plate. Of these 5 test wells, 3 wells of each dilution were infected with dengue virus type 2, diluted in test media (approximately 2000 CCID50 per well for an MOI of 0.07). Test medium (100 μL) with no virus was added to 2 wells to represent the uninfected cytotoxicity controls. Six additional infected wells received 100 μL media alone as untreated virus controls. Further, 100 μL of media alone was added to 6 uninfected wells to serve as uninfected, untreated controls. Cultures were incubated at 37° C.+5% CO2 until >80% CPE is observed. After cytopathic effect (CPE) is observed microscopically, 0.011% neutral red dye was added for approximately 2 hours. The neutral red dye was removed and wells were rinsed once with PBS to remove residual, unincorporated dye. A 50:50 Sorensen citrate buffer/ethanol solution was added and incubated at room temperature for >30 minutes with agitation, followed by measurement of neutral red dye using a spectrophotometer at 540 nm. The resulting optical density measurement was converted to percent signal of the infected, untreated cell control normalizing to virus controls. EC50 and CC50 values were determined by linear regression analysis.

[3] = tested on: dengue virus type 2 in Huh7 hepatoblastoma cells; assay: Dengue Virus-2 Huh-7 EC50 (Example W); settings: MOI of 0.07, CPE, neutral red dye, read-out: Dengue Virus-2 Huh-7 EC50 (nM) (per Ex. W)
Experimental: as §1

SMILES | EC50 [1] [nM] | CC50 [2] [µM] | EC50 [3] [nM]
CCCCCCCCCCCCCCCCCCOC[C@H](COP(=O)(O)OC[C@@]1(C#N)O[C@@H](c2ccc3c(N)ncnn23)[C@H](O)[C@@H]1O)OCc1ccc(C#N)c(-n2cncn2)c1 [Compound 16, ((2R,3S,4R,5S)-5-(4-aminopyrrolo[2,1-f][1,2,4]triazin-7-yl)-2-cyano-3,4-dihydroxytetrahydrofuran-2-yl)methyl ((R)-2-((4-cyano-3-(1H-1,2,4-triazol-1-yl)benzyl)oxy)-3-(octadecyloxy)propyl) hydrogen phosphate] | < 6 | 24 | 3900
CCCCCCCCCCCCCCCCCCOC[C@H](COP(=O)(O)OC[C@@]1(C#N)O[C@@H](c2ccc3c(N)ncnn23)[C@H](O)[C@@H]1O)OCc1ccc(C#N)nc1 [Compound 19, ((2R,3S,4R,5S)-5-(4-aminopyrrolo[2,1-f][1,2,4]triazin-7-yl)-2-cyano-3,4-dihydroxytetrahydrofuran-2-yl)methyl ((R)-2-((6-cyanopyridin-3-yl)methoxy)-3-(octadecyloxy)propyl) hydrogen phosphate] | 98 | 25 | 6600
CCCCCCCCCCCCCCCCCCOC[C@H](COP(=O)(O)OC[C@@]1(C#N)O[C@@H](c2ccc3c(N)ncnn23)[C@H](O)[C@@H]1O)Oc1ccc(C#N)c(OC(C)C)c1 [Compound 23, ((2R,3S,4R,5S)-5-(4-aminopyrrolo[2,1-f][1,2,4]triazin-7-yl)-2-cyano-3,4-dihydroxytetrahydrofuran-2-yl)methyl ((R)-2-(4-cyano-3-isopropoxyphenoxy)-3-(octadecyloxy)propyl) hydrogen phosphate] | 16 | 26 | 8600
CCCCCCCCCCCCCCCCCCC[C@H](COP(=O)(O)OC[C@@]1(C#N)O[C@@H](c2ccc3c(N)ncnn23)[C@H](O)[C@@H]1O)OCc1cc(F)cc(C#N)c1 [Compound 25, ((2R,3S,4R,5S)-5-(4-aminopyrrolo[2,1-f][1,2,4]triazin-7-yl)-2-cyano-3,4-dihydroxytetrahydrofuran-2-yl)methyl ((R)-2-((3-cyano-5-fluorobenzyl)oxy)henicosyl) hydrogen phosphate] | 98 | 13 | 9200
CCCCCCCCCCCCCCCCCCC[C@H](COP(=O)(O)OC[C@@]1(C#N)O[C@@H](c2ccc3c(N)ncnn23)[C@H](O)[C@@H]1O)OCc1ccc(C#N)c(OC(C)C)c1 [Compound 28, ((2R,3S,4R,5S)-5-(4-aminopyrrolo[2,1-f][1,2,4]triazin-7-yl)-2-cyano-3,4-dihydroxytetrahydrofuran-2-yl)methyl ((R)-2-((4-cyano-3-isopropoxybenzyl)oxy)henicosyl) hydrogen phosphate] | 28 | 19 | 9500
CCCCCCCCCCCCCCCCCCCC[C@H](COP(=O)(O)OC[C@@]1(C#N)O[C@@H](c2ccc3c(N)ncnn23)[C@H](O)[C@@H]1O)OCc1cc(F)cc(C#N)c1 [Compound 34, ((2R,3S,4R)-5-(4-aminopyrrolo[2,1-f][1,2,4]triazin-7-yl)-2-cyano-3,4-dihydroxytetrahydrofuran-2-yl)methyl ((R)-2-((3-cyano-5-fluorobenzyl)oxy)docosyl) hydrogen phosphate] | – | 15 | 15000
CCCCCCCCCCCCCCCCCCC[C@H](COP(=O)(O)OC[C@@]1(C#N)O[C@@H](c2ccc3c(N)ncnn23)[C@H](O)[C@@H]1O)Oc1ccc(C#N)c(OC(C)C)c1 [Compound 38, ((2R,3S,4R,5S)-5-(4-aminopyrrolo[2,1-f][1,2,4]triazin-7-yl)-2-cyano-3,4-dihydroxytetrahydrofuran-2-yl)methyl ((R)-2-(4-cyano-3-isopropoxyphenoxy)henicosyl) hydrogen phosphate] | 23 | 5.8 | 2900
CCCCCCCCCCCCCCCCCCC[C@H](COP(=O)(O)OC[C@@]1(C#N)O[C@@H](c2ccc3c(N)ncnn23)[C@H](O)[C@@H]1O)Oc1cc(OC)c(C#N)c(OC)c1 [Compound 39, ((2R,3S,4R,5S)-5-(4-aminopyrrolo[2,1-f][1,2,4]triazin-7-yl)-2-cyano-3,4-dihydroxytetrahydrofuran-2-yl)methyl ((R)-2-(4-cyano-3,5-dimethoxyphenoxy)henicosyl) hydrogen phosphate] | – | 14 | 9100
CCCCCCCCCCCCCCCCCCOCC(COc1cc(F)cc(C#N)c1)COP(=O)(O)OC[C@@]1(C#N)O[C@@H](c2ccc3c(N)ncnn23)[C@H](O)[C@@H]1O (stereo partly drawn) [Compound 43, ((2R,3S,4R,5S)-5-(4-aminopyrrolo[2,1-f][1,2,4]triazin-7-yl)-2-cyano-3,4-dihydroxytetrahydrofuran-2-yl)methyl (3-(3-cyano-5-fluorophenoxy)-2-((octadecyloxy)methyl)propyl) hydrogen phosphate] | 129 | 14 | 9700
CCCCCCCCCCCCCCOC[C@H](COP(=O)(O)OC[C@@]1(C#N)O[C@@H](c2ccc3c(N)ncnn23)[C@H](O)[C@@H]1O)Oc1cc(C#N)ccn1 [Compound 69, ((2R,3S,4R)-5-(4-aminopyrrolo[2,1-f][1,2,4]triazin-7-yl)-2-cyano-3,4-dihydroxytetrahydrofuran-2-yl)methyl ((R)-2-((4-cyanopyridin-2-yl)oxy)-3-(tetradecyloxy)propyl) hydrogen phosphate] | 29 | – | –
CCCCCCCCCCCCCCOC[C@H](COP(=O)(O)OC[C@@]1(C#N)O[C@@H](c2ccc3c(N)ncnn23)[C@H](O)[C@@H]1O)OCc1ccc(C#N)cc1F [Compound 75, ((2R,3S,4R,5S)-5-(4-aminopyrrolo[2,1-f][1,2,4]triazin-7-yl)-2-cyano-3,4-dihydroxytetrahydrofuran-2-yl)methyl ((R)-2-((4-cyano-2-fluorobenzyl)oxy)-3-(tetradecyloxy)propyl) hydrogen phosphate] | < 10.9 | > 50 | 23000
